Measured values taken from patent US9518038B2, “Condensation product of theanine derivative and carboxylic acid coumarin derivative, its intermediate, preparation method and use thereof” (SHANDONG YINGDONG YINGHAO BIOTECHNOLOGY, INC., priority 2012, dated 2016).
Like-named read-outs stand apart in the source and are kept apart here.

Experiments:
[1] = test system: human brain tumor cells Daoy; assay: MTT growth inhibition, Daoy cells; type: cell-based; conditions: 72 h after treatment, read-out: Drug concentration (IC50) at which 50% cancer cells survived
From the text: (§1) Cell lines and cell culture: human lung cancer cells A549 and H460, human breast cancer cells MCF-7 and MDA-MB-231, human gastric cancer cells BGC-823, human prostate cancer cells PC-3, human chronic leukemia cells K562, human lymphoma cells U937, human liver cancer cells SMMC7721 and HepG2, human colon cancer cells HT29, human pancreatic cancer cells PANC-1 and BxPC3, human cervical cancer Hela cell lines, human brain tumor cells Daoy, human neuroma cells D54 and human oral epidermoid cancer cells KBV200 line with strong drug resistance, mouse melanoma cells B16, and highly metastatic Lewis lung cancer cell lines were purchased from American Type Culture Collection of the U.S. These cells were cultured with DMEM and RPMI-1640 culture solutions separately.
(§2) The procedure was as follows:
(§3) (1) 0.25% trypsin was used to digest cancer cells in a logarithmic growth phase to prepare a single-cell suspension, the concentration of cells was adjusted to 5×10^4/mL, and the adjusted suspension was inoculated into a 96-well culture plate with 100 μl per well;
(§4) (2) The culture plate was transferred into a 37° C. incubator with a saturated humidity and 5% of CO2 and cultured for 24 h; the compounds and the intermediates thereof obtained in embodiments 1-7 and the compound as represented by formula (IIIa) or the positive control anti-cancer drug with the concentration of 1-1000 μM/L were added to enable the final concentration to be 0.1-1500 μM/L. Control wells (only added with 200 μl of cell suspension) and drug-free blank control wells (containing the solvent of 0.01% DMSO) were set, each group included 8 wells, and the plate was placed into the 37° C. incubator with saturated humidity and 5% of CO2 for culturing;
(§5) (3) The 96-well plate was taken out at 48 h and 72 h after dosing, the original culture medium was carefully removed by suction, 100 μl of serum-free DMEM culture medium and 10 μl of MTT (5 mg/mL) solution were added in each well. The plate was continuously cultured for another 4 h and then the culture was terminated;
(§6) (4) The supernatant in the wells was carefully removed by suction, each well was added with 150 μl of DMSO and shaked at room temperature for 10-15 min to fully dissolve crystals.
(§7) (5) Colorimetric analysis: the wavelength was selected as 570 nm, the light absorbance (A value) of each well was determined on the microplate reader and the results were recorded; the experiment was repeated for three times;
(§8) (6) the experimental results were calculated according to the following formula: relative survival rate=(A value of each experimental group/A value of cell control group)×100%
(§9) Calculation of median-effect concentration (IC50, namely the drug concentration at which the inhibition rate is 50%, also known as half inhibitory concentration):
(§10) IC50 of the detected component was calculated by using a regression equation.

[2] = test system: human breast cancer cells MCF-7 xenograft; assay: In-vivo growth of MCF-7 xenografts in nude mice; design: species or system BALB/c nude mice; conditions: positive controls: cisplatin 1.5 mg/kg/day, cyclophosphamide 60 mg/kg/2 day, endostar 8 mg/kg
Procedure: (§11) RPMI1640 and DMEM culture solutions: Hyclone Company; inactivated fetal bovine serum: Hyclone Company, preserved at −20° C.; trypsin: Amersco Company; and 0.4% trypan blue: Sigma Company;
(§12) (3) Observation of growth of tumors in nude mice: the activities (including food intake, traits of urine and stool, mental state and the like) of the nude mice and the tumor growth time and growth situation of the transplanted tumors were observed every day, the body weight and the size of the tumors were measured once every 2-3 days. The long diameter a and the short diameter b (mm) of each tumor were measured by a vernier caliper to calculate the volume, wherein the volume V=π1/2·ab^2 (mm^3);
(§13) (4) sacrifice of animals: the mice were anesthetized and photoed after treatment experiments; the nude mice were sacrificed by breaking neck, the tumor tissues were stripped under sterile conditions and the weight of the tumors was weighed; and the effects of the drugs on pathology and toxicity of the various organs and tissues were detected.

[3] = test system: mouse melanoma cells B16; assay: MTT growth inhibition, B16 cells; type: cell-based; conditions: 72 h after treatment, read-out: Drug concentration (IC50) at which 50% cancer cells survived
From the text: as §1, §2, §3, §4, §5, §6, §7, §8, §9, §10

[4] = test system: human cervical cancer cells Hela xenograft; assay: In-vivo growth of Hela xenografts in nude mice; design: species or system BALB/c nude mice; conditions: positive controls: cisplatin 1.5 mg/kg/day, endostar 8 mg/kg
Procedure: as §11, §12, §13

[5] = test system: human breast cancer cells MDA-MB231 xenograft; assay: In-vivo growth of MDA-MB231 xenografts in nude mice; design: species or system BALB/c nude mice; conditions: MB-231 xenograft; positive controls: cisplatin 1.5 mg/kg/day, cyclophosphamide 60 mg/kg/2 day, endostar 8 mg/kg
Procedure: as §11, §12, §13

[6] = test system: human cervical cancer Hela cell lines; assay: MTT growth inhibition, Hela cells; type: cell-based; conditions: 72 h after treatment, read-out: Drug concentration (IC50) at which 50% cancer cells survived
From the text: as §1, §2, §3, §4, §5, §6, §7, §8, §9, §10

[7] = test system: human lung cancer cells A549 xenograft; assay: In-vivo growth of A549 xenografts in nude mice; design: species or system BALB/c nude mice; conditions: positive controls: cisplatin 1.5 mg/kg/day, cyclophosphamide 60 mg/kg/2 day, endostar 8 mg/kg
Procedure: as §11, §12, §13

[8] = test system: human pancreatic cancer cells PANC-1 xenograft; assay: In-vivo growth of PANC-1 xenografts in nude mice; design: species or system BALB/c nude mice; conditions: positive controls: cisplatin 1.5 mg/kg/day, endostar 8 mg/kg
Procedure: as §11, §12, §13

[9] = test system: human liver cancer cells SMMC7721 xenograft; assay: In-vivo growth of SMMC7721 xenografts in nude mice; design: species or system BALB/c nude mice; conditions: S-7721 xenograft; positive controls: cisplatin 1.5 mg/kg/day, cyclophosphamide 60 mg/kg/2 day, endostar 8 mg/kg
Procedure: as §11, §12, §13

[10] = test system: human neuroma cells D54; assay: MTT growth inhibition, D54 cells; type: cell-based; conditions: 72 h after treatment, read-out: Drug concentration (IC50) at which 50% cancer cells survived
From the text: as §1, §2, §3, §4, §5, §6, §7, §8, §9, §10

[11] = test system: human lung cancer cells A549; assay: MTT growth inhibition, A549 cells; type: cell-based; conditions: 72 h after treatment, read-out: Drug concentration (IC50) at which 50% cancer cells survived
From the text: as §1, §2, §3, §4, §5, §6, §7, §8, §9, §10

[12] = test system: human lung cancer cells H460; assay: MTT growth inhibition, H460 cells; type: cell-based; conditions: NCI-H460, 72 h after treatment, read-out: Drug concentration (IC50) at which 50% cancer cells survived
From the text: as §1, §2, §3, §4, §5, §6, §7, §8, §9, §10

[13] = test system: human breast cancer cells MCF-7; assay: MTT growth inhibition, MCF-7 cells; type: cell-based; conditions: MCF7, 72 h after treatment, read-out: Drug concentration (IC50) at which 50% cancer cells survived
From the text: as §1, §2, §3, §4, §5, §6, §7, §8, §9, §10

[14] = test system: human lymphoma cells U937; assay: MTT growth inhibition, U937 cells; type: cell-based; conditions: read-out: Drug concentration (IC50) at which 50% cancer cells survived
Procedure: as §2, §5, §6, §7, §8, §10

[15] = test system: Caski human cervical cancer cells; assay: MTT growth inhibition, Caski cells; type: cell-based; conditions: Ca-Ski, 72 h after treatment, read-out: Drug concentration (IC50) at which 50% cancer cells survived
[16] = test system: human prostate cancer cells PC-3; assay: MTT growth inhibition, PC-3 cells; type: cell-based; conditions: 72 h after treatment, read-out: Drug concentration (IC50) at which 50% cancer cells survived
From the text: as §1, §2, §3, §4, §5, §6, §7, §8, §9, §10

[17] = test system: human pancreatic cancer cells BxPC3; assay: MTT growth inhibition, BxPc3 cells; type: cell-based; conditions: Homo sapiens, BXPC-3, 72 h after treatment, read-out: Drug concentration (IC50) at which 50% cancer cells survived
From the text: as §1, §2, §3, §4, §5, §6, §7, §8, §9, §10

[18] = test system: human liver cancer cells HepG2; assay: MTT growth inhibition, HepG2 cells; type: cell-based; conditions: 72 h after treatment, read-out: Drug concentration (IC50) at which 50% cancer cells survived
From the text: as §1, §2, §3, §4, §5, §6, §7, §8, §9, §10

[19] = test system: human breast cancer cells MDA-MB-231; assay: MTT growth inhibition, MDA-MB-231 cells; type: cell-based; conditions: 72 h after treatment, read-out: Drug concentration (IC50) at which 50% cancer cells survived
From the text: as §1, §2, §3, §4, §5, §6, §7, §8, §9, §10

[20] = test system: human gastric cancer cells BGC-823; assay: MTT growth inhibition, BGC-823 cells; type: cell-based; conditions: 72 h after treatment, read-out: Drug concentration (IC50) at which 50% cancer cells survived
From the text: as §1, §2, §3, §4, §5, §6, §7, §8, §9, §10

[21] = test system: human chronic leukemia cells K562; assay: MTT growth inhibition, K562 cells; type: cell-based; conditions: 72 h after treatment, read-out: Drug concentration (IC50) at which 50% cancer cells survived
From the text: as §1, §2, §3, §4, §5, §6, §7, §8, §9, §10

[22] = test system: human pancreatic cancer cells PANC-1; assay: MTT growth inhibition, PANC-1 cells; type: cell-based; conditions: 72 h after treatment, read-out: Drug concentration (IC50) at which 50% cancer cells survived
From the text: as §1, §2, §3, §4, §5, §6, §7, §8, §9, §10

[23] = test system: highly metastatic Lewis lung cancer cell lines; assay: MTT growth inhibition, LLC cells; type: cell-based, mouse; conditions: Mus musculus, Lewis lung carcinoma, 72 h after treatment, read-out: Drug concentration (IC50) at which 50% cancer cells survived
From the text: as §1, §2, §3, §4, §5, §6, §7, §8, §9, §10

[24] = test system: human colon cancer cells HT29; assay: MTT growth inhibition, HT29 cells; type: cell-based; conditions: HT-29, 72 h after treatment, read-out: Drug concentration (IC50) at which 50% cancer cells survived
From the text: as §1, §2, §3, §4, §5, §6, §7, §8, §9, §10

[25] = test system: human oral epidermoid cancer cells KBV200; assay: MTT growth inhibition, KBV200 cells; type: cell-based; conditions: 72 h after treatment, read-out: Drug concentration (IC50) at which 50% cancer cells survived
From the text: as §1, §2, §3, §4, §5, §6, §7, §8, §9, §10

[26] = test system: human liver cancer cells SMMC7721; assay: MTT growth inhibition, SMMC7721 cells; type: cell-based; conditions: SMMC-7721, S-7721 (SMMC7721), 72 h after treatment, read-out: Drug concentration (IC50) at which 50% cancer cells survived
From the text: as §1, §2, §3, §4, §5, §6, §7, §8, §9, §10

[27] = Homo sapiens, U-937, 72 h after treatment

Compound | IC50 ([1]; Homo sapiens) [µM] | IC50 ([3]; Mus musculus) [µM] | IC50 [11] [µM] | IC50 [12] [µM] | IC50 ([6]; Homo sapiens) [µM] | IC50 [13] [µM] | IC50 [14, 27] [µM] | IC50 [15] [µM] | IC50 [16] [µM] | IC50 [17] [µM] | IC50 [18] [µM] | IC50 [19] [µM] | IC50 [20] [µM] | IC50 [21] [µM] | IC50 [22] [µM] | IC50 [23] [µM] | IC50 ([10]; Homo sapiens) [µM] | IC50 [24] [µM] | IC50 [25] [µM] | IC50 [26] [µM] | further results
N.N.[Cl][Pt][Cl] [Cisplatin, reference compound] |  |  |  |  |  |  |  |  |  |  |  |  |  |  |  |  |  |  |  |  | IC50 [1]: 1.6 µM; Curative effect (inhibition rate %) of tumor weight [2]: A.39.9% ± 7.8;; IC50 [3]: 67 ± 30 µM; Curative effect (inhibition rate %) of tumor weight [4]: A.36.6% ± 7.5; Curative effect (inhibition rate %) of tumor weight [5]: A/61.3% ± 6.7*;; IC50 [6]: 66 µM; Curative effect (inhibition rate %) of tumor weight [7]: A/46.7% ± 6.5*;; Curative effect (inhibition rate %) of tumor weight [8]: A/25.3% ± 7.7; Curative effect (inhibition rate %) of tumor weight [9]: A.69.6% ± 7.9;; IC50 [10]: 21 µM
O=C(O)c1cc2cc(F)ccc2oc1=O [Compound IIIe, 6-fluorocoumarin-3-carboxylic acid] | 500 | 600 | 450 | 450 | 600 | 390 | 560 | 380 | 520 | 500 | 400 | 520 | 700 | 300 | 480 | 380 | 300 | 570 | 300 | 490 | 
COc1cccc2c1C(=O)c1c(O)c3c(c(O)c1C2=O)C[C@@](O)(C(C)=O)C[C@@H]3O[C@H]1C[C@H](N)[C@H](O)[C@H](C)O1 [Daunorubicin, reference compound] |  |  |  | 63 |  | 58 |  |  | 51 |  |  |  | 68 |  | 55 |  |  | 63 | 1 |  | 
O=C(O)c1cc2ccccc2oc1=O [Compound IIIa] | > 700 | > 700 | > 700 | > 700 | > 700 | > 700 | > 700 | > 700 | > 500 | > 700 | > 700 | > 700 | > 700 | > 700 | > 700 | > 700 | > 700 | > 700 | > 700 | > 500 | 
COc1cc([C@@H]2c3cc4c(cc3[C@@H](O[C@@H]3O[C@@H]5CO[C@@H](C)O[C@H]5[C@H](O)[C@H]3O)[C@H]3COC(=O)[C@H]23)OCO4)cc(OC)c1O [Etoposide, reference compound] |  |  |  |  |  |  |  | 89 |  |  |  |  |  | 85 |  |  |  |  |  |  | 
N.N.O=C([O-])C1(C(=O)[O-])CCC1.[Pt+2] [Carboplatin, reference compound] |  |  |  |  |  |  |  |  |  |  |  |  |  |  |  |  |  |  |  |  | IC50 ([14]; 72 h after treatment): 58 ± 30 µM
